MIC data for 13 compounds are collected here from ChEMBL document CHEMBL5154863, “Design and synthesis of quinolinium-based derivatives targeting FtsZ for antibacterial evaluation and mechanistic study” (Eur J Med Chem, 2022).

What all share (assay type): functional
Holding throughout (conditions): time 20-24 hrs

Assay [1] concerns Staphylococcus aureus. Kind of assay: Antibacterial activity against methicillin-resistant Staphylococcus aureus ATCC 33592 assessed as inhibition of bacterial growth incubated for 20 to 24 hrs by broth micro dilution method.
In assay [2] the test system is Staphylococcus aureus. Kind of assay: Antibacterial activity against methicillin-resistant Staphylococcus aureus ATCC BAA-1720 assessed as inhibition of bacterial growth incubated for 20 to 24 hrs by broth micro dilution method.
Assay [3] deals with Staphylococcus aureus. Kind of assay: Antibacterial activity against methicillin-resistant Staphylococcus aureus ATCC 43300 assessed as inhibition of bacterial growth incubated for 20 to 24 hrs by broth micro dilution method.
The subject of assay [4] is Acinetobacter baumannii. Kind of assay: Antibacterial activity against multi-drug resistant Acinetobacter baumannii ATCC 19606 assessed as inhibition of bacterial growth incubated for 20 to 24 hrs by broth micro dilution method.
Assay [5] relates to Enterococcus faecium. Kind of assay: Antibacterial activity against Enterococcus faecium ATCC 49624 assessed as inhibition of bacterial growth incubated for 20 to 24 hrs by broth micro dilution method.
Assay [6] has as its system Enterococcus faecium. Kind of assay: Antibacterial activity against vancomycin-resistant Enterococcus faecium clinical isolate assessed as inhibition of bacterial growth incubated for 20 to 24 hrs by broth micro dilution method.
Assay [7] has as its system Enterococcus faecalis. Description: Antibacterial activity against Enterococcus faecalis ATCC 29212 assessed as inhibition of bacterial growth incubated for 20 to 24 hrs by broth micro dilution method.
Assay [8] has as its system Staphylococcus epidermidis. Description: Antibacterial activity against Staphylococcus epidermidis ATCC 12228 assessed as inhibition of bacterial growth incubated for 20 to 24 hrs by broth micro dilution method.
For assay [9], the system named is Staphylococcus aureus. Kind of assay: Antibacterial activity against Staphylococcus aureus ATCC 29213 assessed as inhibition of bacterial growth incubated for 20 to 24 hrs by broth micro dilution method.
For assay [10], the system named is Staphylococcus aureus. Description: Antibacterial activity against vancomycin-intermediate Staphylococcus aureus Mu50 assessed as inhibition of bacterial growth incubated for 20 to 24 hrs by broth micro dilution method.
Assay [11] concerns Bacillus subtilis. Kind of assay: Antibacterial activity against Bacillus subtilis CMCC (B) 63501 assessed as inhibition of bacterial growth incubated for 20 to 24 hrs by broth micro dilution method.
The test system of assay [12] is Escherichia coli. Description: Antibacterial activity against Escherichia coli ATCC 25922 assessed as inhibition of bacterial growth incubated for 20 to 24 hrs by broth micro dilution method.
For assay [13], the system named is Enterococcus faecium. Description: Antibacterial activity against vancomycin resistant Enterococcus faecium ATCC 700221 assessed as inhibition of bacterial growth incubated for 20 to 24 hrs by broth micro dilution method.
Assay [14] concerns Escherichia coli. Description: Antibacterial activity against NDM-1 expressing Escherichia coli ATCC BAA2469 assessed as inhibition of bacterial growth incubated for 20 to 24 hrs by broth micro dilution method.
The subject of assay [15] is Pseudomonas aeruginosa. Kind of assay: Antibacterial activity against […] Pseudomonas aeruginosa ATCC 27853 assessed as inhibition of bacterial growth incubated for 20 to 24 hrs by broth micro dilution method.
The test system of assay [16] is Klebsiella pneumoniae. Description: Antibacterial activity against NDM-1 expressing Klebsiella pneumoniae ATCC BAA 2470 assessed as inhibition of bacterial growth incubated for 20 to 24 hrs by broth micro dilution method.
The subject of assay [17] is Escherichia coli. Description: Antibacterial activity against Escherichia coli ATCC 8739 assessed as inhibition of bacterial growth incubated for 20 to 24 hrs by broth micro dilution method.

Converted amounts (≈) assume the structure as drawn.

Broadly, the MIC is the lowest concentration that inhibits growth of the organism. For `CN(C)c1ccc(/C=C/c2cc(NCCCO)c3ccccc3[n+]2C)cc1.[I-]`, the minimum inhibitory concentration (MIC) in [1] is 32 µg/mL; in [2] it was 64 µg/mL; in assay [3] it was 64 µg/mL; in assay [4] it was more than 64 µg/mL; in assay [5], 8 µg/mL; in assay [6], more than 64 µg/mL. The MIC in assay [7] was 16 µg/mL; in [8] it was 8 µg/mL; in assay [9], 32 µg/mL; in [10] it was 16 µg/mL; in assay [11] it was more than 64 µg/mL; in assay [12], more than 64 µg/mL. Moreover, the MIC in [13] was 16 µg/mL; in assay [14] it was more than 64 µg/mL; in assay [15], more than 64 µg/mL; in assay [16] it was more than 64 µg/mL; in [17], more than 64 µg/mL.
Regarding `CN(C)c1ccc(/C=C/c2cc(N3CCOCC3)c3ccccc3[n+]2C)cc1.[I-]`, the MIC was 64 µg/mL in assay [1]; 64 µg/mL in [2]; 64 µg/mL in [3]; more than 64 µg/mL in assay [4]; 8 µg/mL in assay [5]; 32 µg/mL in [6]. Also, the MIC is more than 64 µg/mL in assay [7]; 16 µg/mL in assay [8]; 32 µg/mL in [9]; 32 µg/mL in assay [10]; 32 µg/mL in assay [11]; more than 64 µg/mL in assay [12]. Also, the MIC in assay [13] was 16 µg/mL; in assay [14], more than 64 µg/mL; in assay [15] it was more than 64 µg/mL; in [16], more than 64 µg/mL; in [17], more than 64 µg/mL.
As to `CN(C)c1ccc(/C=C/c2cc(N3CCCC3)c3ccccc3[n+]2C)cc1.[I-]`, the MIC in [1] turned out to be 1 µg/mL; in assay [2], 8 µg/mL; in assay [3], 2 µg/mL; in assay [4] it was 32 µg/mL; in [5], 4 µg/mL; in assay [6], 4 µg/mL. Moreover, the minimum inhibitory concentration (MIC) is 2 µg/mL in assay [7]; 1 µg/mL in [8]; 1 µg/mL in assay [9]; 1 µg/mL in [10]; 4 µg/mL in assay [11]; 4 µg/mL in assay [12]. Further, the minimum inhibitory concentration (MIC) in assay [13] is 2 µg/mL; in assay [14], 64 µg/mL; in [15], more than 64 µg/mL; in [16] it was more than 64 µg/mL; in assay [17], 16 µg/mL.
As to `CN(C)c1ccc(/C=C/c2cc(N3CCCC3)[n+](C)c3ccccc23)cc1.[I-]`, the MIC in assay [1] is 16 µg/mL; in [2] it was 16 µg/mL; in assay [3] it was 16 µg/mL; in assay [4], more than 64 µg/mL; in assay [5] it was 16 µg/mL; in assay [6], 16 µg/mL. Further, the MIC in [7] stood at 64 µg/mL; in assay [8], 2 µg/mL; in assay [9], 4 µg/mL; in assay [10], 8 µg/mL; in assay [11] it was 16 µg/mL; in assay [12], 16 µg/mL. In addition, the MIC in assay [13] is 8 µg/mL; in assay [14], 64 µg/mL; in assay [15], more than 64 µg/mL; in [16] it was more than 64 µg/mL; in [17], 32 µg/mL.
As for `CN(C)c1ccc(/C=C/c2cc(N3CCOCC3)[n+](C)c3ccccc23)cc1.[I-]`, the MIC in assay [1] is 64 µg/mL; in [2] it was more than 64 µg/mL; in assay [3], more than 64 µg/mL; in [4] it was more than 64 µg/mL; in assay [5], 8 µg/mL; in assay [6] it was more than 64 µg/mL. Also, the MIC is more than 64 µg/mL in assay [7]; 16 µg/mL in assay [8]; 32 µg/mL in [9]; 32 µg/mL in assay [10]; 16 µg/mL in assay [11]; more than 64 µg/mL in assay [12]. Moreover, the MIC in assay [13] is 32 µg/mL; in assay [14] it was more than 64 µg/mL; in assay [15], more than 64 µg/mL; in assay [16] it was more than 64 µg/mL; in assay [17], more than 64 µg/mL.
For `CC1(C)S[C@@H]2[C@H](NC(=O)[C@H](N)c3ccccc3)C(=O)N2[C@H]1C(=O)O` [AMPICILLIN], the MIC in [1] was 64 µg/mL (≈ 183 µM); in assay [2], more than 64 µg/mL; in assay [3], more than 64 µg/mL; in assay [4], more than 64 µg/mL; in assay [5], 2 µg/mL (≈ 5.72 µM); in assay [6], more than 64 µg/mL. The MIC in assay [7] was 1 µg/mL (≈ 2.86 µM); in [8], more than 64 µg/mL; in assay [9], more than 64 µg/mL; in assay [10], 0.125 µg/mL (≈ 0.358 µM); in [11], 4 µg/mL (≈ 11.4 µM); in assay [13] it was 0.25 µg/mL (≈ 0.715 µM). Moreover, the minimal inhibitory concentration (MIC) in assay [14] was more than 64 µg/mL; in assay [15], more than 64 µg/mL; in [16] it was more than 64 µg/mL; in [17] it was 16 µg/mL (≈ 45.8 µM).
Take `CN(C)c1ccc(/C=C/c2cc(NCCCO)[n+](C)c3ccccc23)cc1.[I-]`: the MIC is 64 µg/mL in [1]; 64 µg/mL in assay [2]; more than 64 µg/mL in [3]; more than 64 µg/mL in assay [4]; more than 64 µg/mL in assay [5]; 64 µg/mL in [6]. Also, the MIC in assay [7] was more than 64 µg/mL; in assay [8], 64 µg/mL; in [9] it was more than 64 µg/mL; in assay [10], 64 µg/mL; in assay [11] it was 32 µg/mL; in assay [12], more than 64 µg/mL. Moreover, the minimum inhibitory concentration (MIC) in assay [13] was 64 µg/mL; in [14] it was more than 64 µg/mL; in assay [15], more than 64 µg/mL; in assay [16], more than 64 µg/mL; in assay [17] it was more than 64 µg/mL.
With `CCCCNc1cc(/C=C/c2ccc(N(C)C)cc2)c2ccccc2[n+]1C.[I-]`, the MIC was 32 µg/mL in assay [1]; 16 µg/mL in assay [2]; 16 µg/mL in assay [3]; more than 64 µg/mL in assay [4]; 16 µg/mL in assay [5]; 8 µg/mL in [6]. The MIC is 32 µg/mL in assay [7]; 16 µg/mL in assay [8]; 32 µg/mL in assay [9]; 16 µg/mL in assay [10]; 8 µg/mL in assay [11]; more than 64 µg/mL in assay [12]. For the same compound, the MIC was 8 µg/mL in assay [13]; more than 64 µg/mL in assay [14]; more than 64 µg/mL in assay [15]; more than 64 µg/mL in assay [16]; more than 64 µg/mL in assay [17].
On to `CN[C@H](CC(C)C)C(=O)N[C@H]1C(=O)N[C@@H](CC(N)=O)C(=O)N[C@H]2C(=O)N[C@H]3C(=O)N[C@H](C(=O)N[C@H](C(=O)O)c4cc(O)cc(O)c4-c4cc3ccc4O)[C@H](O)c3ccc(c(Cl)c3)Oc3cc2cc(c3O[C@@H]2O[C@H](CO)[C@@H](O)[C@H](O)[C@H]2O[C@H]2C[C@](C)(N)[C@H](O)[C@H](C)O2)Oc2ccc(cc2Cl)[C@H]1O` [VANCOMYCIN], for which the MIC is more than 64 µg/mL in assay [4]; more than 64 µg/mL in assay [6]; 2 µg/mL (≈ 1.38 µM) in assay [7]; more than 64 µg/mL in assay [8]; 32 µg/mL (≈ 22.1 µM) in [10]; 0.25 µg/mL (≈ 0.173 µM) in assay [11]. In addition, the minimal inhibitory concentration (MIC) was more than 64 µg/mL in assay [12]; 1020 µg/mL (≈ 707 µM) in assay [13]; more than 64 µg/mL in assay [14]; more than 64 µg/mL in assay [15]; more than 64 µg/mL in [16]; more than 64 µg/mL in [17].
Turning to `CCCNc1cc(/C=C/c2ccc(N(C)C)cc2)[n+](C)c2ccccc12.[I-]`, the MIC in assay [1] was 4 µg/mL; in assay [2], 4 µg/mL; in [3] it was 8 µg/mL; in assay [4], more than 64 µg/mL; in [5] it was 16 µg/mL; in assay [6] it was 8 µg/mL. The MIC in assay [7] amounted to 4 µg/mL; in assay [8], 2 µg/mL; in [9], 8 µg/mL; in assay [10], 8 µg/mL; in assay [11], 16 µg/mL; in [12], 32 µg/mL. The MIC in assay [13] is 4 µg/mL; in assay [14], more than 64 µg/mL; in assay [15], more than 64 µg/mL; in [16], more than 64 µg/mL; in assay [17], more than 64 µg/mL.
Take `O=C(O)c1cn(C2CC2)c2cc(N3CCNCC3)c(F)cc2c1=O` [CIPROFLOXACIN]: the MIC was more than 64 µg/mL in assay [2]; 2 µg/mL (≈ 6.04 µM) in assay [3]; 32 µg/mL (≈ 96.6 µM) in assay [5]; 4 µg/mL (≈ 12.1 µM) in [7]; 1 µg/mL (≈ 3.02 µM) in [8]; 0.25 µg/mL (≈ 0.754 µM) in [9]. Moreover, the MIC is 1 µg/mL (≈ 3.02 µM) in assay [10]; 0.25 µg/mL (≈ 0.754 µM) in assay [11]; more than 64 µg/mL in assay [13]; more than 64 µg/mL in assay [14]; 1 µg/mL (≈ 3.02 µM) in [15]; more than 64 µg/mL in [16]. In addition, the MIC in assay [17] was less than 0.125 µg/mL.
As for `CN(C)c1ccc(/C=C/c2ccc3ccccc3[n+]2C)cc1.[I-]`, the MIC in [5] is 8 µg/mL; in [7] it was more than 64 µg/mL; in [8], 16 µg/mL; in assay [9], 16 µg/mL; in assay [11], 64 µg/mL.
Take `CN(C)c1ccc(/C=C/c2cc[n+](C)c3ccccc23)cc1.[I-]`: the MIC in [5] was 16 µg/mL; in assay [7] it was more than 64 µg/mL; in [8], 16 µg/mL; in assay [9], 16 µg/mL; in assay [11] it was 64 µg/mL.
